Assay results published in patent publication US9447042B2, “Endoparasite control agent” (THE UNIVERSITY OF TOKYO, priority 2011, dated 2016).
Where two headings read alike, the source gives them in different places.

Assays:
[1] = target: T1, Ascaris suum succinate-ubiquinone reductase (mitochondrial complex II) (Ascaris suum, UniProt O44074+P92506+P92507); assay: In vitro inhibitory activity on Ascaris suum succinate-ubiquinone reductase (mitochondrial complex II); type: biochemical; conditions: for Selectivity B/A: porcine IC50 (B) / Ascaris suum IC50 (A)
T1 construct: from tissue; host or cells: mitochondria from adult Ascaris suum muscle
T1 sequence (O44074 22-282): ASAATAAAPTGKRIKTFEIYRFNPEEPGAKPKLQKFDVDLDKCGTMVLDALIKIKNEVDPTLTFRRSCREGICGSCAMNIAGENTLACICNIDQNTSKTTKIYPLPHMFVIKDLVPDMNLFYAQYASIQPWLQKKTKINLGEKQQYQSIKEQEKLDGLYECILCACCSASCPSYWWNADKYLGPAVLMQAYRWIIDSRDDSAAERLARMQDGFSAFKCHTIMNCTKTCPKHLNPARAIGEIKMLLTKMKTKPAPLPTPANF
T1 sequence (P92506 32-188): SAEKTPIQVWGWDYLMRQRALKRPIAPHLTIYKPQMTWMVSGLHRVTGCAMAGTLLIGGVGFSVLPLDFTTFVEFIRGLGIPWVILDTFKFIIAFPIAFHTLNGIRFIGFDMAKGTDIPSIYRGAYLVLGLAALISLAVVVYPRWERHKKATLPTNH
T1 sequence (P92507 26-156): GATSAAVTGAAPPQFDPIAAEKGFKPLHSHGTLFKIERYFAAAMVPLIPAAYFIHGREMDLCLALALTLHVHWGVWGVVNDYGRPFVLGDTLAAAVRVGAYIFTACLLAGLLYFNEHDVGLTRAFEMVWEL
T1 sequence (Q33862 19-645 partner): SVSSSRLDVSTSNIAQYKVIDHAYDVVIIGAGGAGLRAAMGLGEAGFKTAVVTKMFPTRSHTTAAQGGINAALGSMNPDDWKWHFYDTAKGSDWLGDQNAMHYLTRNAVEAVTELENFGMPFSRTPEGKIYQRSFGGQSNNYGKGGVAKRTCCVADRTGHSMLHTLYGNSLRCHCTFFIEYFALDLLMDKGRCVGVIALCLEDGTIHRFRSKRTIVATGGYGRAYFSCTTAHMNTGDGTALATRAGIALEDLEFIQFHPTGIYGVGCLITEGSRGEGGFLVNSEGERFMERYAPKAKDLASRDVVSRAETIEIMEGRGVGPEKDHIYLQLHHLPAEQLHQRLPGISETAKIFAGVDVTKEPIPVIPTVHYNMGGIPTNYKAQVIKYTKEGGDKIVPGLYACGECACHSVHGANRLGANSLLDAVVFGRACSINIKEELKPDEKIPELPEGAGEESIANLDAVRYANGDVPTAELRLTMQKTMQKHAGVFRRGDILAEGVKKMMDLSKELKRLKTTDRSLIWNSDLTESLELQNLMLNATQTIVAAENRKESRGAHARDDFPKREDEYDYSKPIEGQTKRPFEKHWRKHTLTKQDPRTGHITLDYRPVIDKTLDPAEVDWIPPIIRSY
Description: In Vitro Measurement of Inhibitory Activity on Ascaris suum Succinate-Ubiquinone Reductase (Mitochondrial Complex II)
(§1) To a solution containing 50 mM potassium phosphate (pH 7.4) and 0.1% (w/v) sucrose monolaurate, an electron acceptor ubiquinone-2 (UQ2) was added at a final concentration of 60 μM, and the mixture was allowed to stand at 25° C. for 20 minutes. To this, potassium cyanide (final concentration: 2 mM) and mitochondria prepared from adult Ascaris suum muscle were added, and thorough mixing was done. To aliquots of the mixture, an inhibitor to be tested was added at various concentrations, and the mixtures were allowed to stand at 25° C. for 3 minutes. The enzymatic reaction was initiated by addition of potassium succinate (final concentration: 10 mM).
(§2) In the table, “-” indicates “not tested,” and “Ascaris suum IC50 value (A)” indicates an IC50 value (50% inhibitory concentration) for inhibition of succinate-ubiquinone reductase (mitochondrial complex II) of Ascaris suum. From the extent of inhibition of this respiratory enzyme, the parasite control activity can be estimated. “Porcine mitochondria IC50 value (B)” indicates an IC50 value for inhibition of succinate-ubiquinone reductase (mitochondrial complex II) of the host pig. From the extent of inhibition of this respiratory enzyme, the influence on the host can be estimated. A greater selectivity index B/A indicates a higher safety for the host.

[2] = target: T2, Porcine succinate-ubiquinone reductase (mitochondrial complex II) (Sus scrofa, UniProt A5GZW8+D0VWV4+Q007T0); assay: In vitro inhibitory activity on porcine succinate-ubiquinone reductase (mitochondrial complex II); type: biochemical, pig
T2 construct: from tissue; host or cells: mitochondria from porcine heart muscle
T2 sequence (Q007T0 29-280): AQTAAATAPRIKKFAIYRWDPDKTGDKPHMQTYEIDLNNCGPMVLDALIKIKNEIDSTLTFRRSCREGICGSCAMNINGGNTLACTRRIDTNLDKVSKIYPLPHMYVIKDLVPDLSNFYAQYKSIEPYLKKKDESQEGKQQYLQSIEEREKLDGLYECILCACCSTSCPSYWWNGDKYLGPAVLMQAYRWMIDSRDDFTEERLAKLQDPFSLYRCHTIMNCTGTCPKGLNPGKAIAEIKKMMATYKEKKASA
T2 sequence (D0VWV4 30-169): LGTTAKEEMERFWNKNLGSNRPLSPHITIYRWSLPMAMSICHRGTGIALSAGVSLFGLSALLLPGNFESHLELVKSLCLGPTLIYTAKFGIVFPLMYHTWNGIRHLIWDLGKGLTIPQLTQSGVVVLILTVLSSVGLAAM
T2 sequence (A5GZW8 57-159 limits assumed): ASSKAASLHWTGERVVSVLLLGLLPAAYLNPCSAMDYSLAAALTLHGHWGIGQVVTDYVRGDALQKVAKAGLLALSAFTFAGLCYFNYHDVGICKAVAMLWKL
T2 sequence (Q0QF01 43-664 partner): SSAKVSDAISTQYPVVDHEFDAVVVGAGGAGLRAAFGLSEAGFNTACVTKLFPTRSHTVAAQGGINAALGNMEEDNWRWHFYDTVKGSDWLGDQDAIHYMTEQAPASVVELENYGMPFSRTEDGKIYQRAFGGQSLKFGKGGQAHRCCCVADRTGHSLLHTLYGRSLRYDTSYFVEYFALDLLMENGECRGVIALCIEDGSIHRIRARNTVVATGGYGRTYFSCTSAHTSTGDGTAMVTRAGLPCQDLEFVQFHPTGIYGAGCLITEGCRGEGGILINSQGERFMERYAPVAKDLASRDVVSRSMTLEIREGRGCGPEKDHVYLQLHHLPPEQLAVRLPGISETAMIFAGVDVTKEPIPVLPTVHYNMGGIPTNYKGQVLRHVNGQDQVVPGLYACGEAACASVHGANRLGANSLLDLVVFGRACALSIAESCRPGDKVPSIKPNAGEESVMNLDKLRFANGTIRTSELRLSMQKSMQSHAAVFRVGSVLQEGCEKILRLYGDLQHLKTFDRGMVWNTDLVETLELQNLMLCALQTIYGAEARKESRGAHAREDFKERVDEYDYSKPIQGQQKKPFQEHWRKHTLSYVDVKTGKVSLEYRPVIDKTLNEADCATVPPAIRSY
Description: In Vitro Measurement of Inhibitory Activity on Porcine Succinate-Ubiquinone Reductase (Mitochondrial Complex II)
as §1, with “porcine heart” for “adult Ascaris suum”
as §2

Haemonchus contortus = assay: Larval migration inhibition assay (LMIA) on Haemonchus contortus; type: in vivo; conditions: third-stage larvae
Description: In Vivo Activity on Haemonchus contortus
The test was conducted according to the larval migration inhibition assay (LMIA: Demeler et al., 2010). A larval suspension was prepared so as to contain 100 to 120 third-stage larvae of Haemonchus contortus per 20 μL, and then 20 μL of the larval suspension was added to each well on a breeding plate to which compound solutions adjusted to predetermined concentrations were previously added at […] each. The breeding plate was maintained for breeding at 28° C. for 24 hours. Meanwhile, to a plate for larval migration observation, 400 μL of a 1.5% agar solution was added and left to stand until coagulation. Then, the larvae were allowed to migrate through a sieve from the breeding plate to the plate for larval migration observation, and the plates were maintained for breeding at 28° C. for another 24 hours. The larvae which had migrated, and the larvae which had not migrated were counted, the percentage of migration inhibition was calculated, and the activity was graded based on the following criterion. In the table, “-” indicates “not tested.”
Percentage of Migration Inhibition

[3] = at 90 μM, porcine heart muscle mitochondria
[4] = at 9 μM, porcine heart muscle mitochondria
[5] = mitochondria from adult Ascaris suum muscle, read-out: Ascaris suum IC50 value (A)
[6] = mitochondria from porcine heart muscle, read-out: Porcine mitochondria IC50 value (B)

Porcine mitochondria inhibition at 90 μM [2, 3]	IC50 [1, 5] [nM]	Compound	IC50 [1] [nM]	Selectivity B/A [1]	further results
–	–	CC(Cc1ccc(Cl)cc1Cl)NC(=O)c1ccccc1C(F)(F)F (stereo not drawn) [Compound 1-32]	2.15	>4190	Porcine mitochondria inhibition at 9 μM [2, 4]: no inhibition at 9 μM; Percentage of migration inhibition (grade) (Haemonchus contortus; 0.1 ppm): C (10 to 39%); Percentage of migration inhibition (grade) (Haemonchus contortus; 1 ppm): C (10 to 39%); Percentage of migration inhibition (grade) (Haemonchus contortus; 10 ppm): B (40 to 69%)
–	–	CC(Cc1ccc(F)cc1F)NC(=O)c1ccccc1C(F)(F)F (stereo not drawn) [Compound 1-64]	9	>9150	Porcine mitochondria inhibition at 9 μM [2, 4]: no inhibition at 9 μM
–	–	CC(Cc1ccc(Cl)c(Cl)c1)NC(=O)c1ccccc1C(F)(F)F (stereo not drawn) [Compound 1-81]	4.8	>18800	inhibition at 90 µM [2, 3]: 10%
–	–	CC(C)(Cc1ccc(Cl)c(Cl)c1)NC(=O)c1ccccc1C(F)(F)F [Compound 1-88]	12	–	–
–	–	O=C(NCCc1c(Cl)cc(C(F)(F)F)cc1Cl)c1ccccc1C(F)(F)F [Compound 1-110]	4.07	>2460	Porcine mitochondria inhibition at 10 μM ([2]; at 10 μM, porcine heart muscle mitochondria): no inhibition at 10 μM
–	5.47	CC(C)(C)c1ccc(CNC(=O)c2ccccc2C(F)(F)F)cc1 [Compound 2-1]	–	20295	IC50 [2, 6]: 111000 nM; Percentage of migration inhibition (grade) (Haemonchus contortus; 0.1 ppm): C (10 to 39%); Percentage of migration inhibition (grade) (Haemonchus contortus; 1 ppm): B (40 to 69%)
no inhibition at 90 μM	127	CC(C)(NC(=O)c1ccccc1C(F)(F)F)c1ccccc1 [Compound 2-3]	–	>709	–
no inhibition at 90 μM	70.5	O=C(NC(c1ccc(Cl)cc1)C1CC1)c1ccccc1C(F)(F)F (stereo not drawn) [Compound 2-4]	–	>1280	–
–	3.83	Cc1cc(CNC(=O)c2ccccc2C(F)(F)F)ccc1-c1ccc(OC(F)(F)F)cc1 [Compound 2-5]	–	>2350	Porcine mitochondria inhibition at 9 μM [2, 4]: no inhibition at 9 μM
10% at 90 μM	28.3	O=C(NCc1ccc(Cl)cc1Cl)c1ccccc1C(F)(F)F [Compound 2-6]	–	>3180	Percentage of migration inhibition (grade) (Haemonchus contortus; 0.1 ppm): C (10 to 39%); Percentage of migration inhibition (grade) (Haemonchus contortus; 1 ppm): C (10 to 39%); Percentage of migration inhibition (grade) (Haemonchus contortus; 10 ppm): C (10 to 39%)
no inhibition at 90 μM	14	CC(NC(=O)c1ccccc1C(F)(F)F)c1ccc(Cl)cc1Cl (stereo not drawn) [Compound 2-7]	–	>6430	–
no inhibition at 90 μM	38.2	CC(NC(=O)c1ccccc1C(F)(F)F)c1ccc(Cl)cc1 (stereo not drawn) [Compound 2-8]	–	>2360	–
–	–	O=C(NCCc1ncc(C(F)(F)F)cc1Cl)c1ccccc1C(F)(F)F [Compound 3-7]	1.6	56250	IC50 [2]: 90000 nM; Percentage of migration inhibition (grade) (Haemonchus contortus; 0.1 ppm): C (10 to 39%); Percentage of migration inhibition (grade) (Haemonchus contortus; 1 ppm): C (10 to 39%); Percentage of migration inhibition (grade) (Haemonchus contortus; 10 ppm): C (10 to 39%); Percentage of migration inhibition (grade) (Haemonchus contortus; 100 ppm): B (40 to 69%)
–	–	O=C(NCCOc1ccc(Cl)cc1Cl)c1ccccc1C(F)(F)F [Compound 4-1]	3.44	–	Percentage of migration inhibition (grade) (Haemonchus contortus; 0.1 ppm): C (10 to 39%); Percentage of migration inhibition (grade) (Haemonchus contortus; 1 ppm): C (10 to 39%); Percentage of migration inhibition (grade) (Haemonchus contortus; 10 ppm): C (10 to 39%)
–	–	CC(COc1ccc(Cl)cc1Cl)NC(=O)c1ccccc1C(F)(F)F (stereo not drawn) [Compound 4-2]	5.15	–	–
–	–	Cc1ccc(OCCNC(=O)c2ccccc2C(F)(F)F)c(C)c1 [Compound 4-3]	1.98	–	–
16% at 90 μM	8.36	O=C(NCCCOc1ccc(Cl)cc1Cl)c1ccccc1C(F)(F)F [Compound 4-4]	–	>10770	–
11% at 90 μM	6.07	Cc1ccc(SCCCNC(=O)c2ccccc2C(F)(F)F)c(C)c1 [Compound 4-5]	–	>14830	–
–	8.34	O=C(NCCCSc1ccc(Cl)cc1Cl)c1ccccc1C(F)(F)F [Compound 4-6]	–	>1079	Porcine mitochondria inhibition at 9 μM [2, 4]: no inhibition at 9 μM
–	–	O=C(NCCCc1ccc(Cl)cc1Cl)c1ccccc1C(F)(F)F [Compound 4-7]	1.78	57870	IC50 [2, 6]: 103000 nM; Percentage of migration inhibition (grade) (Haemonchus contortus; 0.1 ppm): C (10 to 39%); Percentage of migration inhibition (grade) (Haemonchus contortus; 1 ppm): C (10 to 39%); Percentage of migration inhibition (grade) (Haemonchus contortus; 10 ppm): C (10 to 39%); Percentage of migration inhibition (grade) (Haemonchus contortus; 100 ppm): B (40 to 69%)
–	–	CC(CCc1ccc(Cl)cc1Cl)NC(=O)c1ccccc1C(F)(F)F (stereo not drawn) [Compound 4-8]	2.61	>3448	inhibition at 9 µM [2, 4]: 5%

Compound	Porcine mitochondria inhibition at 90 μM [2, 3]	IC50 [1, 5] [nM]	IC50 [1] [nM]	Selectivity B/A [1]	further results
O=C(NCCc1ccc(Cl)cc1)c1ccccc1C(F)(F)F [Compound 1-3]	no inhibition at 90 μM	–	1.21	>27000	–
O=C(NCCc1ccc(Cl)cc1Cl)c1ccccc1C(F)(F)F [Compound 1-16]	no inhibition at 90 μM	–	3.34	>74400	Percentage of migration inhibition (grade) (Haemonchus contortus; 0.1 ppm): C (10 to 39%); Percentage of migration inhibition (grade) (Haemonchus contortus; 1 ppm): C (10 to 39%); Percentage of migration inhibition (grade) (Haemonchus contortus; 10 ppm): C (10 to 39%); Percentage of migration inhibition (grade) (Haemonchus contortus; 100 ppm): B (40 to 69%)
Cc1ccc(CCNC(=O)c2ccccc2C(F)(F)F)c(C)c1 [Compound 1-27]	no inhibition at 90 μM	–	1.69	>53300	–
O=C(NCCc1ccccc1)c1ccccc1C(F)(F)F [Compound 1-111]	no inhibition at 90 μM	–	13.1	>6870	–
CC(C)(CNC(=O)c1ccccc1C(F)(F)F)c1ccc(Cl)cc1Cl [Compound 1-112]	no inhibition at 90 μM	–	1.5	>60000	–
